Values of other authors in patent publication US20260054267A1, “PRODUCTION OF ENCAPSULATED NANOPARTICLES AT COMMERCIAL SCALE” (ICEUTICA PTY LTD., priority 2009, published 2026).

Conditions: slowly absorbed by the body

**Q.** With `Cc1cnc(NC(=O)C2=C(O)c3ccccc3S(=O)(=O)N2C)s1` [Meloxicam] as the compound, how does the Tmax read?
**A.** 4 to 5 h
